# Data: PubChem BioAssay AID1259407 (Chemical Carcinogenesis Research Information System (CCRIS), 2018)
# The source made the active and inactive calls. How the calls were made is not given here.
# Tested on: CCRIS mutagenicity, Ames/micronucleus/aberration tests
# Test: CCRIS mutagenicity studies
# [1] = Test System: AMES SALMONELLA TYPHIMURIUM, Strain/Indicator: TA98, Metabolic Activation: NONE, Method: PREINCUBATION
# [2] = Test System: AMES SALMONELLA TYPHIMURIUM, Strain/Indicator: TA100, Metabolic Activation: NONE, Method: PREINCUBATION
# [3] = Test System: AMES SALMONELLA TYPHIMURIUM, Strain/Indicator: TA98, Metabolic Activation: NONE, Method: STANDARD PLATE
# [4] = Test System: AMES SALMONELLA TYPHIMURIUM, Strain/Indicator: TA100, Metabolic Activation: NONE, Method: STANDARD PLATE
smiles,measurement,setting,value
CCCCCCCCCCCCCCCCCC[N+](C)(C)Cc1ccccc1,mutagenic call,"Test System: AMES SALMONELLA TYPHIMURIUM, Strain/Indicator: TA97, Metabolic Activation: HAMSTER, LIVER, S-9, AROCLOR 1254 (10%), Method: PREINCUBATION",inactive; negative
same,mutagenic call,"Test System: AMES SALMONELLA TYPHIMURIUM, Strain/Indicator: TA97, Metabolic Activation: HAMSTER, LIVER, S-9, AROCLOR 1254 (30%), Method: PREINCUBATION",inactive; negative
same,mutagenic call,"Test System: AMES SALMONELLA TYPHIMURIUM, Strain/Indicator: TA97, Metabolic Activation: NONE, Method: PREINCUBATION",inactive; negative
same,mutagenic call,"Test System: AMES SALMONELLA TYPHIMURIUM, Strain/Indicator: TA97, Metabolic Activation: RAT, LIVER, S-9, AROCLOR 1254 (10%), Method: PREINCUBATION",inactive; negative
same,mutagenic call,"Test System: AMES SALMONELLA TYPHIMURIUM, Strain/Indicator: TA97, Metabolic Activation: RAT, LIVER, S-9, AROCLOR 1254 (30%), Method: PREINCUBATION",inactive; negative
same,mutagenic call,"Test System: AMES SALMONELLA TYPHIMURIUM, Strain/Indicator: TA98, Metabolic Activation: HAMSTER, LIVER, S-9, AROCLOR 1254 (10%), Method: PREINCUBATION",inactive; negative
same,mutagenic call,"Test System: AMES SALMONELLA TYPHIMURIUM, Strain/Indicator: TA98, Metabolic Activation: HAMSTER, LIVER, S-9, AROCLOR 1254 (30%), Method: PREINCUBATION",inactive; negative
same,mutagenic call,[1],inactive; negative
same,mutagenic call,"Test System: AMES SALMONELLA TYPHIMURIUM, Strain/Indicator: TA98, Metabolic Activation: RAT, LIVER, S-9, AROCLOR 1254 (10%), Method: PREINCUBATION",inactive; negative
same,mutagenic call,"Test System: AMES SALMONELLA TYPHIMURIUM, Strain/Indicator: TA98, Metabolic Activation: RAT, LIVER, S-9, AROCLOR 1254 (30%), Method: PREINCUBATION",inactive; negative
same,mutagenic call,"Test System: AMES SALMONELLA TYPHIMURIUM, Strain/Indicator: TA100, Metabolic Activation: HAMSTER, LIVER, S-9, AROCLOR 1254 (10%), Method: PREINCUBATION",inactive; negative
same,mutagenic call,"Test System: AMES SALMONELLA TYPHIMURIUM, Strain/Indicator: TA100, Metabolic Activation: HAMSTER, LIVER, S-9, AROCLOR 1254 (30%), Method: PREINCUBATION",inactive; negative
same,mutagenic call,[2],inactive; negative
same,mutagenic call,"Test System: AMES SALMONELLA TYPHIMURIUM, Strain/Indicator: TA100, Metabolic Activation: RAT, LIVER, S-9, AROCLOR 1254 (10%), Method: PREINCUBATION",inactive; negative
same,mutagenic call,"Test System: AMES SALMONELLA TYPHIMURIUM, Strain/Indicator: TA100, Metabolic Activation: RAT, LIVER, S-9, AROCLOR 1254 (30%), Method: PREINCUBATION",inactive; negative
same,mutagenic call,"Test System: AMES SALMONELLA TYPHIMURIUM, Strain/Indicator: TA1535, Metabolic Activation: HAMSTER, LIVER, S-9, AROCLOR 1254 (10%), Method: PREINCUBATION",inactive; negative
same,mutagenic call,"Test System: AMES SALMONELLA TYPHIMURIUM, Strain/Indicator: TA1535, Metabolic Activation: HAMSTER, LIVER, S-9, AROCLOR 1254 (30%), Method: PREINCUBATION",inactive; negative
same,mutagenic call,"Test System: AMES SALMONELLA TYPHIMURIUM, Strain/Indicator: TA1535, Metabolic Activation: NONE, Method: PREINCUBATION",inactive; negative
same,mutagenic call,"Test System: AMES SALMONELLA TYPHIMURIUM, Strain/Indicator: TA1535, Metabolic Activation: RAT, LIVER, S-9, AROCLOR 1254 (10%), Method: PREINCUBATION",inactive; negative
same,mutagenic call,"Test System: AMES SALMONELLA TYPHIMURIUM, Strain/Indicator: TA1535, Metabolic Activation: RAT, LIVER, S-9, AROCLOR 1254 (30%), Method: PREINCUBATION",inactive; negative
same,mutagenic call,"Test System: AMES SALMONELLA TYPHIMURIUM, Strain/Indicator: TA1537, Metabolic Activation: HAMSTER, LIVER, S-9, AROCLOR 1254 (30%), Method: PREINCUBATION",inactive; negative
same,mutagenic call,"Test System: AMES SALMONELLA TYPHIMURIUM, Strain/Indicator: TA1537, Metabolic Activation: NONE, Method: PREINCUBATION",inactive; negative
same,mutagenic call,"Test System: AMES SALMONELLA TYPHIMURIUM, Strain/Indicator: TA1537, Metabolic Activation: RAT, LIVER, S-9, AROCLOR 1254 (30%), Method: PREINCUBATION",inactive; negative
CC(=O)O[C@H]1[C@@H]2CC(C)(C)CC2=C(C=O)[C@@]2(C=O)C[C@@]12C,mutagenic call,[3],inactive; negative
same,mutagenic call,[4],inactive; negative
same,mutagenic call,"Test System: AMES SALMONELLA TYPHIMURIUM, Strain/Indicator: TA2637, Metabolic Activation: NONE, Method: STANDARD PLATE",inactive; negative
same,mutagenic call,"Test System: CHINESE HAMSTER V-79, Strain/Indicator: V-79/6-THIOGUANINE (HGPRT), Metabolic Activation: NONE",inactive; negative
OCc1c2ccccc2c2ccc3cccc4ccc1c2c43,mutagenic call,"Test System: AMES SALMONELLA TYPHIMURIUM, Strain/Indicator: TA98, Metabolic Activation: RAT, LIVER, CYTOSOL AND PAPS-GENERATING SYSTEM, Method: PREINCUBATION",active; positive
same,mutagenic call,"Test System: AMES SALMONELLA TYPHIMURIUM, Strain/Indicator: TA100, Metabolic Activation: RAT, LIVER, CYTOSOL AND PAPS-GENERATING SYSTEM, Method: PREINCUBATION",active; positive
same,mutagenic call,"Test System: AMES SALMONELLA TYPHIMURIUM, Strain/Indicator: TA100, Metabolic Activation: RAT, LIVER, S-9, AROCLOR 1254, Method: STANDARD PLATE",active; positive
same,mutagenic call,"Test System: AMES SALMONELLA TYPHIMURIUM, Strain/Indicator: TA1538, Metabolic Activation: RAT, LIVER, S-9, AROCLOR 1254, Method: STANDARD PLATE",active; positive
same,mutagenic call,"Test System: CHINESE HAMSTER V-79, Strain/Indicator: V-79 (HGPRT)/6-THIOGUANINE, Metabolic Activation: NONE",active; positive
same,mutagenic call,"Test System: CHINESE HAMSTER V-79, Strain/Indicator: V-79 (NA/K-ATPASE)/OUABAIN, Metabolic Activation: NONE",active; positive
same,mutagenic call,"Test System: CHINESE HAMSTER V-79, Strain/Indicator: V-79/OUABAIN, Metabolic Activation: HAMSTER, EMBRYO, CELL-MEDIATED, Method: STANDARD PLATE",active; positive
O=[N+]([O-])c1ccc(N=N/C(=N\Nc2ccc(I)cc2)c2ccccc2)cc1,mutagenic call,"Test System: AMES SALMONELLA TYPHIMURIUM, Strain/Indicator: TA97, Metabolic Activation: NONE, Method: SPOT TEST",inactive; negative
same,mutagenic call,"Test System: AMES SALMONELLA TYPHIMURIUM, Strain/Indicator: TA97, Metabolic Activation: RAT, LIVER, S-9, PHENOBARBITAL, Method: SPOT TEST",inactive; negative
same,mutagenic call,[1],inactive; negative
same,mutagenic call,"Test System: AMES SALMONELLA TYPHIMURIUM, Strain/Indicator: TA98, Metabolic Activation: NONE, Method: SPOT TEST",inactive; negative
same,mutagenic call,"Test System: AMES SALMONELLA TYPHIMURIUM, Strain/Indicator: TA98, Metabolic Activation: RAT, LIVER, S-9, PHENOBARBITAL, Method: PREINCUBATION",inactive; negative
same,mutagenic call,"Test System: AMES SALMONELLA TYPHIMURIUM, Strain/Indicator: TA98, Metabolic Activation: RAT, LIVER, S-9, PHENOBARBITAL, Method: SPOT TEST",inactive; negative
same,mutagenic call,[2],inactive; negative
same,mutagenic call,"Test System: AMES SALMONELLA TYPHIMURIUM, Strain/Indicator: TA100, Metabolic Activation: NONE, Method: SPOT TEST",inactive; negative
same,mutagenic call,"Test System: AMES SALMONELLA TYPHIMURIUM, Strain/Indicator: TA100, Metabolic Activation: RAT, LIVER, S-9, PHENOBARBITAL, Method: PREINCUBATION",inactive; negative
same,mutagenic call,"Test System: AMES SALMONELLA TYPHIMURIUM, Strain/Indicator: TA100, Metabolic Activation: RAT, LIVER, S-9, PHENOBARBITAL, Method: SPOT TEST",inactive; negative
same,mutagenic call,"Test System: AMES SALMONELLA TYPHIMURIUM, Strain/Indicator: TA102, Metabolic Activation: NONE, Method: SPOT TEST",inactive; negative
same,mutagenic call,"Test System: AMES SALMONELLA TYPHIMURIUM, Strain/Indicator: TA102, Metabolic Activation: RAT, LIVER, S-9, PHENOBARBITAL, Method: SPOT TEST",inactive; negative
O=S1(=O)c2cccc3ccc4c5ccccc5cc1c4c23,mutagenic call,[3],active; positive
same,mutagenic call,"Test System: AMES SALMONELLA TYPHIMURIUM, Strain/Indicator: TA98, Metabolic Activation: RAT, LIVER, S-9, AROCLOR 1254 (10%), Method: STANDARD PLATE",active; positive
same,mutagenic call,[4],active; positive
same,mutagenic call,"Test System: AMES SALMONELLA TYPHIMURIUM, Strain/Indicator: TA100, Metabolic Activation: RAT, LIVER, S-9, AROCLOR 1254 (10%), Method: STANDARD PLATE",active; positive
